Paper PMC4850424 (Molecular Cell, 2016)

Assays:
testis-derived Brdt = assay: JQ1 inhibition of Brdt binding to H4 peptides; set-up: species or system mouse; settings: JQ1 added to extract prior to peptide pull-down; Figure 6C lower left
[1] = tested on: histone octamers / chromatin (H4K5 and H4K8); settings: [14C] butyryl-CoA, in vitro; ref Chen et al., 2007; cited from earlier work

Row | Molecule | inhibition of Brdt binding to H4K5acK8bu peptide (testis-derived Brdt) | inhibition of Brdt binding to acetylated H4 peptide (testis-derived Brdt) | lysine butyrylation of core histones [1]
1 | Cc1sc2c(c1C)C(c1ccc(Cl)cc1)=N[C@@H](CC(=O)OC(C)(C)C)c1nnc(C)n1-2 [JQ1] | abolished the binding | abolished the binding | –
2 | CREB binding protein (CBP): histone acyltransferase | – | – | can catalyze lysine butyrylation
3 | p300: Flag tagged human p300 (324-2094), recombinant from baculovirus-infected insect cells | – | – | can catalyze lysine butyrylation
